Molecular target: human ACC2 (Homo sapiens (Human), UniProt O00763)
Experiment: ACC2 assay (spectrophotometric 384 well assay, NADH-linked kinetic method)
Format: biochemical
Details: hACC2 construct lacking 128 N-terminal amino acids, 25° C., 340 nm
Method: Spectrophotometric 384 Well Assay
Malonyl CoA formation by acetyl CoA carboxylases is stoichometrically linked to the consumption of ATP. ACC2 activity is measured in a NADH-linked kinetic method measuring ADP generated during the ACC reaction using a coupled lactate dehydrogenase/pyruvate kinase reaction.
The protein is then expressed in insect cells using a baculoviral expression system. Protein purification is performed by anion exchange.
All compounds are dissolved in dimethyl sulfoxide (DMSO) to a concentration of 10 mM.
The enzymatic reaction is then started by addition of a mixture of NADH, acetyl Coenzyme A (both 200 μM f.c.) and ATP (500 uM f.c.). The decrease of the optical density (slope S) is then determined at 25° C. at a wavelength of 340 nm over 15 minutes in a spectrophotometric reader.
Each assay microtiter plate contains wells with vehicle instead of compound as controls for the non-inhibited enzyme (100% CTL; ‘HIGH’) and wells without acetyl-CoA as controls for non-specific NADH degradation (0% CTL; ‘LOW’).

Sequence of human ACC2 (O00763 129-2458): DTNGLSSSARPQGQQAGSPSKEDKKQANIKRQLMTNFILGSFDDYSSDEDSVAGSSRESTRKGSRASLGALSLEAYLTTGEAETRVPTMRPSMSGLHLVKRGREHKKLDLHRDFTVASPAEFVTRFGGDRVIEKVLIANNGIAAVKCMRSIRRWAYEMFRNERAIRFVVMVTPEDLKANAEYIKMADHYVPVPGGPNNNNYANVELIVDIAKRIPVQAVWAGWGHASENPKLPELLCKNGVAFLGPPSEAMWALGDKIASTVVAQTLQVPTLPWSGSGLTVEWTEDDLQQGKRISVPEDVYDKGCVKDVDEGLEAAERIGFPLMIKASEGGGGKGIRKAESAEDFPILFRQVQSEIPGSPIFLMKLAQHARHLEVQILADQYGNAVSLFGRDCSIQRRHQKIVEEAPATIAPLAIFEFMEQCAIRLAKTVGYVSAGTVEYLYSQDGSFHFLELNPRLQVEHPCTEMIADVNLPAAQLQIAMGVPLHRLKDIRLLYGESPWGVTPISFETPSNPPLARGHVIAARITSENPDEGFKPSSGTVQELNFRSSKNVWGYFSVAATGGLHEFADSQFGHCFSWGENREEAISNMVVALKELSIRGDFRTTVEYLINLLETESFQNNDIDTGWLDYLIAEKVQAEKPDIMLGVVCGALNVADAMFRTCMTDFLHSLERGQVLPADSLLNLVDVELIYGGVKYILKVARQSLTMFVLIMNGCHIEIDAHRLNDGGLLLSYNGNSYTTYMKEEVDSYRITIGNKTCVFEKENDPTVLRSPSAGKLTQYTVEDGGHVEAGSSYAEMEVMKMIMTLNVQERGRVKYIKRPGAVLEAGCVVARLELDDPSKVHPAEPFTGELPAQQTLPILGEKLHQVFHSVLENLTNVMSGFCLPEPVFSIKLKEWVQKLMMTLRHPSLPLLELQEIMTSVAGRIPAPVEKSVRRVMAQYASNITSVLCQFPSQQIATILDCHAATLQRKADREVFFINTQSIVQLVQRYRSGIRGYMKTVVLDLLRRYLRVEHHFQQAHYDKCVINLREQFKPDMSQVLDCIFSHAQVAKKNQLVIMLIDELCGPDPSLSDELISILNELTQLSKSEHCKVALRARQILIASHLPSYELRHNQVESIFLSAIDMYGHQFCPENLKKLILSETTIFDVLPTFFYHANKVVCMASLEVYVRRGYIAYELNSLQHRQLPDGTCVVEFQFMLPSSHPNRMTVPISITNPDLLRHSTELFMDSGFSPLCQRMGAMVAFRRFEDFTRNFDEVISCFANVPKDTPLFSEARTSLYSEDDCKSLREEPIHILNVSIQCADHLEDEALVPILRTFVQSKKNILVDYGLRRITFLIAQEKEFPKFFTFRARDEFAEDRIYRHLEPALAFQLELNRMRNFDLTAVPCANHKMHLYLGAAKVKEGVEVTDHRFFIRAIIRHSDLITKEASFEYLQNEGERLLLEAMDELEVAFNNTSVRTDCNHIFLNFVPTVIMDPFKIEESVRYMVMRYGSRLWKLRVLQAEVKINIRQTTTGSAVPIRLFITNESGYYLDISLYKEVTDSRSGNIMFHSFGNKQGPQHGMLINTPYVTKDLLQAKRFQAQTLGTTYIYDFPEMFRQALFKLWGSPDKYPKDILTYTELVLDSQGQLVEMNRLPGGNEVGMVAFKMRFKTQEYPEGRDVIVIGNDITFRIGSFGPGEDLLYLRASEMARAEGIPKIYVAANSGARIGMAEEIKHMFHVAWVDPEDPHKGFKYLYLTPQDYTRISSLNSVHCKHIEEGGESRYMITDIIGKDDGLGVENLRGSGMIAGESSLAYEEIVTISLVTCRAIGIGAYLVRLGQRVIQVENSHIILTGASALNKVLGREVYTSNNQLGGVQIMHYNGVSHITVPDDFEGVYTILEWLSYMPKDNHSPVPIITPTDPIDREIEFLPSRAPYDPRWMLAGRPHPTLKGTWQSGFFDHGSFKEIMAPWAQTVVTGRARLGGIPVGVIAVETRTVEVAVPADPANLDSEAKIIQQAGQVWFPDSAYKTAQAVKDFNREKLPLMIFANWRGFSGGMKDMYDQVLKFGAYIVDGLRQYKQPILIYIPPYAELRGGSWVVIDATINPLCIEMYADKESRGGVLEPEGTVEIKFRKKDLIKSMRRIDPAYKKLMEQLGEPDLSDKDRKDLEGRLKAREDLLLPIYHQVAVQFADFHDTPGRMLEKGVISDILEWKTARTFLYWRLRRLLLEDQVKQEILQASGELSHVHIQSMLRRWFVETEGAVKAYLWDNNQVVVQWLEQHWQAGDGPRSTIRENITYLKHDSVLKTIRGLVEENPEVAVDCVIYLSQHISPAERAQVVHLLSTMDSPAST

Row | SMILES | IC50
1 | CCOC1CN(c2ccc(OCC3CC3)cc2)CC1Oc1ccc([C@H](C)NC(C)=O)cc1 (stereo partly drawn) [Example 1.74] | 1680 nM
2 | CC(=O)N[C@@H](C)c1ccc(OC2CCN(c3ccc(OCC4CC4(F)F)c(F)c3)C2)cc1 (stereo partly drawn) [Example 1.98] | 64 nM
3 | CC(=O)N[C@@H](C)c1ccc(OC2CCN(c3ccc(OCC(F)F)cc3)C2)cc1 (stereo partly drawn) [Example 4.6] | 360 nM
4 | CC(=O)N[C@@H](C)c1ccc(OC2CCN(c3ccc(OCC4CC4)cc3C)C2)cc1 (stereo partly drawn) [Example 1.84] | 69 nM
5 | C[C@H](NC(=O)c1cn(C)nc1C(F)F)c1ccc(O[C@@H]2CCN(c3ccc(OCC4CC4)cc3)C2)cc1 [Example 2.45] | 993 nM
6 | C[C@H](NC(=O)N(C)C)c1ccc(O[C@@H]2CCN(c3ccc(OCC4CC4)cc3)C2)cc1 [Example 3.1, 3-((S)-1-(4-((R)-1-(4-(cyclopropylmethoxy)phenyl)pyrrolidin-3-yloxy)phenyl)ethyl)-1,1-dimethylurea] | 74 nM
7 | CC(=O)N[C@@H](C)c1ccc(OC2CCN(c3ccc(F)c(C(F)(F)F)c3)C2)cc1 (stereo partly drawn) [Example 1.34] | 224 nM
8 | CC(=O)N[C@@H](C)c1ccc(OC2CCN(c3ccc(OC4CCOC4)cc3F)C2)cc1 (stereo partly drawn) [Example 1.42] | 589 nM
9 | Cc1cc(OC2CC2)ccc1N1CC[C@@H](Oc2ccc([C@H](C)NC(=O)c3cn[nH]c3)cc2)C1 [Example 2.64] | 357 nM
10 | CC(=O)N[C@@H](C)c1ccc(OC2CCN(c3ccc(F)cc3F)C2)cc1 (stereo partly drawn) [Example 1.35] | 899 nM
11 | COc1cc(OC2CC2)ccc1N1CCC(Oc2ccc([C@H](C)NC(C)=O)cc2)C1 (stereo partly drawn) [Example 1.43] | 274 nM
12 | CC(=O)N[C@@H](C)c1ccc(OC2CCN(c3cc4c(cc3C#N)OCCO4)C2)cc1 (stereo partly drawn) [Example 1.82] | 1480 nM
13 | CCCOc1ccc(N2CCC(Oc3ccc([C@H](C)NC(C)=O)cc3)C2)cc1 (stereo partly drawn) [Example 1.8] | 140 nM
14 | C[C@H](NC(=O)c1cnn(CCO)c1)c1ccc(O[C@@H]2CCN(c3ccc(OCC4CC4)cc3)C2)cc1 [Example 2.51] | 495 nM
15 | COc1ccccc1C(=O)N[C@@H](C)c1ccc(O[C@@H]2CCN(c3ccc(OCC4CC4)cc3)C2)cc1 [Example 2.5] | 800 nM
16 | COc1ccc(N2CCC(Oc3ccc([C@H](C)NC(C)=O)cc3)C2)c(F)c1 (stereo partly drawn) [Example 1.22] | 559 nM
17 | CC(=O)N[C@@H](C)c1ccc(OC2CCN(c3ccc(OCc4ccccc4)cc3)C2)cc1 (stereo partly drawn) [Example 4.5] | 660 nM
18 | C[C@H](NC(=O)C(C)(C)C#N)c1ccc(O[C@@H]2CCN(c3ccc(OCC4CC4)cc3)C2)cc1 [Example 2.39] | 465 nM
19 | CC(=O)N[C@@H](C)c1ccc(OC2CCN(c3ccc4c(c3F)OCCO4)C2)cc1 (stereo partly drawn) [Example 1.47] | 339 nM
20 | CCNC(=O)N[C@@H](C)c1ccc(OC2CCN(c3ccc(OC(C)C)cc3)C2)cc1 (stereo partly drawn) [Example 3.10] | 218 nM
21 | C[C@H](NC(=O)N(C)Cc1ccncn1)c1ccc(OC2CCN(c3ccc(OCC4CC4)cc3)C2)cc1 (stereo partly drawn) [Example 3.6] | 504 nM
22 | CC(=O)N[C@@H](C)c1ccc(OC2CCN(c3cc(C(F)F)ccc3F)C2)cc1 (stereo partly drawn) [Example 1.94] | 221 nM

Row | SMILES | IC50
23 | CCOc1ccc(N2CC[C@H](Oc3ccc([C@H](C)NC(C)=O)cc3)C2)cc1 [Example 1.3] | 263 nM
24 | CC(=O)N[C@@H](C)c1ccc(OC2CCN(c3cccc4c3OCCO4)C2)cc1 (stereo partly drawn) [Example 1.20] | 2960 nM
25 | C[C@H](NC(=O)CO)c1ccc(O[C@@H]2CCN(c3ccc(OCC4CC4)cc3)C2)cc1 [Example 2.29] | 400 nM
26 | CC(=O)N[C@@H](C)c1ccc(O[C@@H]2CCN(c3ccc(OCC4CC4)cc3)C2)cc1 [Example 1.1, N—((S)-1-(4-((R)-1-(4-(Cyclopropylmethoxy)phenyl)pyrrolidin-3-yloxy)phenyl)ethyl)-acetamide] | 54 nM
27 | C[C@H](NC(=O)N1CCOCC1)c1ccc(OC2CCN(c3ccc(OCC4CC4)cc3)C2)cc1 (stereo partly drawn) [Example 3.5] | 198 nM
28 | CC(=O)N[C@@H](C)c1ccc(OC2CCN(c3ccc(OCC4CCOC4)cc3)C2)cc1 (stereo partly drawn) [Example 1.17] | 894 nM
29 | CC(=O)NC(C)c1ccc(OC2CCN(c3ccc(OCC4CC4)cc3)C2)c(F)c1 (stereo not drawn) [Example 7.3] | 199 nM
30 | Cc1nocc1C(=O)N[C@@H](C)c1ccc(O[C@@H]2CCN(c3ccc(OCC4CC4)cc3)C2)cc1 [Example 2.37] | 65 nM
31 | CNC(=O)N[C@@H](C)c1ccc(OC2CCN(c3ccc(OC(C)C)cc3)C2)cc1 (stereo partly drawn) [Example 3.9] | 205 nM
32 | CC(=O)N[C@@H](C)c1ccc(O[C@H]2CCN(c3ccc(OC4CC4)cc3C)C2)cc1 [Example 1.104] | 363 nM
33 | Cc1cc(C(=O)N[C@@H](C)c2ccc(O[C@@H]3CCN(c4ccc(OCC5CC5)cc4)C3)cc2)no1 [Example 2.15] | 315 nM
34 | CC(=O)N[C@@H](C)c1ccc(OC2CCN(c3ccc(OC(C)C)cc3)C2)cc1 (stereo partly drawn) [Example 1.15] | 214 nM
35 | CC(=O)N[C@@H](C)c1ccc(OC2CCN(c3cc4c(cc3F)OCCO4)C2)cc1 (stereo partly drawn) [Example 1.46] | 226 nM
36 | Cc1c(C(=O)N[C@@H](C)c2ccc(O[C@@H]3CCN(c4ccc(OCC5CC5)cc4)C3)cc2)cnn1C [Example 2.47] | 385 nM
37 | CCOc1ccc(N2CC[C@@H](Oc3ccc([C@H](C)NC(=O)c4sc(NC(=O)COC(C)=O)nc4C)cc3)C2)cc1 [Example 2.55] | 53 nM
38 | C[C@H](NC(=O)CC#N)c1ccc(O[C@@H]2CCN(c3ccc(OCC4CC4)cc3)C2)cc1 [Example 2.31] | 71 nM
39 | Cc1[nH]ncc1C(=O)N[C@@H](C)c1ccc(O[C@@H]2CCN(c3ccc(OCC4CC4)cc3)C2)cc1 [Example 2.26] | 47 nM
40 | C[C@H](NC(=O)c1cnc(N)o1)c1ccc(O[C@@H]2CCN(c3ccc(OCC4CC4)cc3)C2)cc1 [Example 2.27] | 107 nM
41 | CCN(C)C(=O)N[C@@H](C)c1ccc(OC2CCN(c3ccc(OCC4CC4)cc3)C2)cc1 (stereo partly drawn) [Example 3.4] | 165 nM
42 | C[C@H](NC(=O)c1cnn(CC(F)F)c1)c1ccc(O[C@@H]2CCN(c3ccc(OCC4CC4)cc3)C2)cc1 [Example 2.52] | 805 nM
43 | C[C@H](NC(=O)C(F)F)c1ccc(O[C@@H]2CCN(c3ccc(OCC4CC4)cc3)C2)cc1 [Example 2.25] | 38 nM
44 | CC(=O)N[C@@H](C)c1ccc(OC2CCN(c3ccc4c(c3)OCCCO4)C2)cc1 (stereo partly drawn) [Example 1.23] | 84 nM

Row | SMILES | IC50
45 | CC(=O)NC(C)c1ccc(OC2CCN(c3ccc(OCC4CC4)cc3)C2)cc1F (stereo not drawn) [Example 7.2] | 762 nM
46 | Cc1cc(OC2CC2)ccc1N1CCC(Oc2ccc([C@H](C)NC(=O)N3CCOCC3)cc2)C1 (stereo partly drawn) [Example 3.13] | 863 nM
47 | CC(=O)N[C@@H](C)c1ccc(OC2CCN(c3ccc(OCC4(C(F)(F)F)CC4)cc3)C2)cc1 (stereo partly drawn) [Example 1.81] | 804 nM
48 | CC(=O)N[C@@H](C)c1ccc(OC2CCN(c3cccc(OC(F)(F)F)c3)C2)cc1 (stereo partly drawn) [Example 1.61] | 845 nM
49 | Cc1cc(OC2CC2)ccc1N1CC[C@@H](Oc2ccc([C@H](C)NC(=O)c3cnco3)cc2)C1 [Example 2.61] | 397 nM
50 | COCC(=O)Nc1nc(C)c(C(=O)N[C@@H](C)c2ccc(OC3CCN(c4ccc(OCC5CC5)cc4)C3)cc2)s1 (stereo partly drawn) [Example 2.42] | 20 nM
51 | CC(=O)N[C@@H](C)c1ccc(OC2CCN(c3ccc(OCCC(F)F)cc3)C2)nc1 (stereo partly drawn) [Example 1.102] | 212 nM
52 | Cc1cc(OC2CC2)ccc1N1CC[C@@H](Oc2ccc([C@H](C)NC(=O)CC#N)cc2)C1 [Example 2.59] | 680 nM
53 | C[C@H](NC(=O)c1cnn2ccn(C)c12)c1ccc(O[C@@H]2CCN(c3ccc(OCC4CC4)cc3)C2)cc1 [Example 2.49] | 885 nM
54 | C[C@H](NC(=O)c1ccon1)c1ccc(O[C@@H]2CCN(c3ccc(OCC4CC4)cc3)C2)cc1 [Example 2.34] | 71 nM
55 | CC(=O)N[C@@H](C)c1ccc(OC2CCN(c3ccc4c(c3F)OCO4)C2)cc1 (stereo partly drawn) [Example 1.72] | 558 nM
56 | C[C@H](NC(=O)c1c[nH]nc1C#N)c1ccc(O[C@@H]2CCN(c3ccc(OCC4CC4)cc3)C2)cc1 [Example 2.57] | 122 nM
57 | Cc1cc(OC2CC2)ccc1N1CC[C@@H](Oc2ccc([C@H](C)NC(=O)c3cncs3)cc2)C1 [Example 2.60] | 260 nM
58 | C[C@H](NC(=O)c1cnn(C)c1Cl)c1ccc(O[C@@H]2CCN(c3ccc(OCC4CC4)cc3)C2)cc1 [Example 2.44] | 55 nM
59 | CC(=O)N[C@@H](C)c1ccc(OC2CCN(c3ccc(OC4CC4)cc3C)C2)nc1 (stereo partly drawn) [Example 1.103] | 231 nM
60 | COc1ccc(N2CCC(Oc3ccc([C@H](C)NC(C)=O)cc3)C2)cc1C(F)(F)F (stereo partly drawn) [Example 1.32] | 538 nM
61 | CC(=O)N[C@@H](C)c1ccc(OC2CCN(c3ccccc3)C2)cc1 (stereo partly drawn) [Example 1.44] | 435 nM
62 | CC(=O)N[C@@H](C)c1ccc(OC2CCN(c3ccc4c(c3)C(C)(C)CO4)C2)cc1 (stereo partly drawn) [Example 1.101] | 269 nM
63 | C[C@H](NC(=O)c1ccnnc1)c1ccc(O[C@@H]2CCN(c3ccc(OCC4CC4)cc3)C2)cc1 [Example 2.36] | 200 nM
64 | CC(=O)N[C@@H](C)c1ccc(OC2CCN(c3cccc(C(F)F)c3)C2)cc1 (stereo partly drawn) [Example 1.95] | 166 nM
65 | CCOc1ccc(N2CC[C@@H](Oc3ccc([C@H](C)NC(=O)c4sc(NC(=O)CO)nc4C)cc3)C2)cc1 [Example 10, N—((S)-1-(4-((R)-1-(4-Ethoxyphenyl)pyrrolidin-3-yloxy)phenyl)-ethyl)-2-(2-hydroxyacetamido)-4-methylthiazole-5-carboxamide] | 163 nM
66 | CC(=O)Nc1nc(C)c(C(=O)N[C@@H](C)c2ccc(O[C@@H]3CCN(c4ccc(OC5CC5)cc4C)C3)cc2)s1 [Example 2.63] | 238 nM
